The results in this text go back to patent US20070037823A1, “Substituted piperidine and piperazine derivatives as melanocortin-4 receptor modulators” (priority 2003, published 2007).

Each structure is given as a SMILES string.

The target of assay [1] is T1, hMC4-R (Homo sapiens, UniProt P32245).
T1 construct: expressed in transfected cells; host or cells: HEK293 cells
As to the kind of experiment: Membrane binding assay, fluorescence labeled NDP-alpha-MSH competition (fluorescence polarization). The following applies: HEK293 cell membrane preparations. The protocol:
A membrane binding assay is used to identify competitive inhibitors of fluorescence labeled NDP-alpha-MSH binding to HEK293 cell membrane preparations expressing human melanocortin receptors.
The test compound or unlabeled NDP-alpha-MSH is dispensed at varying concentrations to a 384 well microtiter plate. Fluorescence labeled NDP-alpha-MSH is dispensed at a single concentration, followed by addition of membrane preparations. The plate is incubated for 5 h at room temperature.
The degree of fluorescence polarization is determined with a fluorescence polarization microplate reader.
A general note: In fluorescence polarisation assays a small probe gives low polarisation when free and higher when bound to something large.

For assay [2], the target named is T1, hMC4-R. In words: Functional cellular cAMP assay in HEK293 cells (fluorescence polarization). The class given is cell-based. The following applies: for % activation functional assay: cAMP compared to stimulation with NDP-alpha-MSH; for EC50: HEK293 cells, cAMP production. The protocol:
A functional cellular assay, based on competition between unlabeled cAMP and a fixed quantity of fluorescence labeled cAMP for a limited number of binding sites on a cAMP specific antibody, is used to discriminate melanocortin receptor agonists from antagonists by fluorescence polarization.
HEK293 cells expressing one of the human melanocortin receptors are transferred to 384 well microtiter plates, an appropriate amount of cAMP antibody is added, followed by the addition of different concentrations of the test compound to effect cAMP production. Cells are lysed and a fluorescence labeled cAMP conjugate is dispensed. The plate is read on a fluorescence polarization microplate reader and the amount of cAMP produced as a response to a test compound is compared to the production of CAMP resulting from stimulation with NDP-alpha-MSH. […]
(Changes in cAMP serve as a functional read-out for many G protein-coupled receptors.)

The subject of the next assay is male Wistar rats. As to the kind of experiment: Spontaneous feeding paradigm (food intake). It is filed as in vivo, rat. The settings on record: 10 mg/kg p.o.; for increase in cumulative food intake: compared to vehicle control. The protocol: Food intake in rats is measured after i.p. or p.o. administration of the test compound (see e.g. Chen, A. S. et al. Transgenic Res April 2000; 9(2):145-54).
3-4 Hours following the onset of the light-phase, individually housed, male Wistar rats (200-300 g) receive an ip injection or po application of test compound or vehicle in an administration volume of 2 ml/kg. Following the administration of substances (1-30 mg/kg), a pre-weighed amount of normal laboratory chow is placed into the food hopper. Food remaining is measured by hand at 1-2 hour intervals for up to 8 hours. Differences in food intake between test-compound and vehicle-treated rats are evaluated.

Setting [3] is: 2 hours following administration.
The mark [4] stands for this setting: 4 hours following administration.

T1 sequence (P32245 whole entry): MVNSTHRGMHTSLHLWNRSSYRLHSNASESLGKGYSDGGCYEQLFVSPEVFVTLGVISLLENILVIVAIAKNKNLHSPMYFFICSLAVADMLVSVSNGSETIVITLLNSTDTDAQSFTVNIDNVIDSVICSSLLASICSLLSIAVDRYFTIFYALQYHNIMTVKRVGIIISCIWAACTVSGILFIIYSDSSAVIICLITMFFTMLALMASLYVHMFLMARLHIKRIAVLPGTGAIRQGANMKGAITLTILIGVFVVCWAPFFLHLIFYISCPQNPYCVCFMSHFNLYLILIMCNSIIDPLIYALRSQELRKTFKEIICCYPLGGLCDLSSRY

One may read the IC50 as the point on the concentration scale where inhibition reaches its midpoint. A lower IC50 goes with greater potency in that assay. The compound `CC(C)(C)NC(=O)C1(C2CCCCC2)CCN(C[C@@H](Cc2ccc(Cl)cc2)NC(=O)[C@@H]2Cc3ccccc3CN2)CC1.Cl` [Example 3] had an IC50 on hMC4-R [1] of 0.42 µM. The “% activation functional assay” value at hMC4-R [2] is on record as “no activation”.

The term EC50 denotes the concentration giving half of the maximal effect. Low readings indicate an effect from little substance, high ones a need for much substance. On hMC4-R [1], `CC(C)(C)NC(=O)C1(C2CCCCC2)CCN(CC[C@@H](Cc2ccc(Cl)cc2)NC(=O)[C@H]2Cc3ccccc3CN2)CC1.Cl` [Example 5] displayed an IC50 of 2.5 µM. On hMC4-R [2], a half-maximal effect (EC50) was put at 8 µM and the “% activation functional assay” value amounted to 52%.

Regarding `CC(C)(C)NC(=O)C1(C2CCCCC2)CCN(C[C@H](Cc2ccc(Cl)cc2)NC(=O)[C@H]2Cc3ccccc3CN2)CC1.Cl` [Example 1], the IC50 at hMC4-R [1] stood at 0.7 µM. Moreover, the “% activation functional assay” value on hMC4-R [2] is “no activation”. Besides, the “activity in the spontaneous feeding paradigm (increase in food intake)” value with male Wistar rats is reported as “active”. Also, the figures for the “increase in cumulative food intake” value in the assay on male Wistar rats (setting [3]), in the assay on male Wistar rats (setting [4]) and in the assay on male Wistar rats (6 hours following administration) were 2700%, 700% and 175%, respectively.

Take `CC(C)(C)NC(=O)C1(C2CCCCC2)CCN(C[C@@H](Cc2ccc(Cl)cc2)NC(=O)[C@H]2Cc3ccccc3CN2)CC1.Cl` [Example 2]: the IC50 at hMC4-R [1] was found to be 0.72 µM. In addition, on hMC4-R [2], the half-maximal effective concentration (EC50) is 3.1 µM and the “% activation functional assay” value came out at 80%.

For the compound `CC(C)(C)NC(=O)C1(C2CCCCC2)CCN(C[C@@H](Cc2ccc(Cl)cc2)NC(=O)c2cc(=O)c3ccccc3o2)CC1` [Example 29], on hMC4-R [1], the IC50 was found to be 2.6 µM. For the same compound, the “% activation functional assay” value on hMC4-R [2] is listed as “no activation”.

`CC(C)(C)NC(=O)C1(C2CCCCC2)CCN(C[C@H](Cc2ccc(Cl)cc2)NC(=O)c2cc(=O)c3ccccc3o2)CC1` [Example 28] showed an IC50 on hMC4-R [1] of 2.3 µM. The “% activation functional assay” value on hMC4-R [2] is given as “no activation”.

For the compound `CC(C)(C)NC(=O)C1(C2CCCCC2)CCN(CC[C@H](Cc2ccc(Cl)cc2)NC(=O)[C@H]2Cc3ccccc3CN2)CC1.Cl` [Example 6], on hMC4-R [1], the IC50 is 1 µM. For the same compound, on hMC4-R [2], the “% activation functional assay” value is reported as “no activation”.

Compound `CC(C)(C)NC(=O)C1(C2CCCCC2)CCN(CC[C@H](Cc2ccc(Cl)cc2)NC(=O)c2cc(=O)c3ccccc3o2)CC1` [Example 31] gave an IC50 on hMC4-R [1] of 0.061 µM. At hMC4-R [2], the “% activation functional assay” value is “no activation”. For the same compound, the “activity in the spontaneous feeding paradigm (increase in food intake)” value with male Wistar rats is listed as “active”. Besides, the “increase in cumulative food intake” value is reported as 1100% in the assay on male Wistar rats (setting [3]) and 380% in the assay on male Wistar rats (setting [4]).

`CC(C)(C)NC(=O)C1(C2CCCCC2)CCN(CC[C@@H](Cc2ccc(Cl)cc2)NC(=O)c2cc(=O)c3ccccc3o2)CC1` [Example 30] yielded an IC50 at hMC4-R [1] of 2.1 µM. The “% activation functional assay” value at hMC4-R [2] is on record as “no activation”.
